Series [1] is described as follows: Acute toxicity by intraperitoneal administration in mice. Particulars: mouse, in vivo, ip. As to the method: The acute toxicity of the compounds of the present invention was more than 100 mg/kg by intraperitoneal administration in mice, so that the PGD analogues of the present invention may be considered to be sufficiently safe and suitable for medical use.
The next series relates to Ehrlich ascites tumor. As to the kind of experiment: Prolongation of survival of mice inoculated with Ehrlich ascites tumor. In kind it is in vivo. Further details: unit not given here. Particulars: ICR mice inoculated intraperitoneally with Ehrlich ascites tumor cells (3 x 10^6/mouse) on day 0, 20 mg/kg/day intraperitoneally from day 1 to day 5. As to the method:
The test on the prolongation of survival of mice inoculated with Ehrlich ascites tumor was conducted by a well known method. ICR mice, weighing 25 - 30 g, were inoculated with Ehrlich ascites tumor cells (3 x 10^6/mouse) intraperitoneally on day 0. A test compound was administered to mice intraperitoneally at a dose of 20 mg/kg/day from day 1 to day 5. Throughout the experiments, each group consisted of six mice (eight mice in control group). The effects of the test compounds were judged by the prolongation of survival time in days. In the Table 2, T/C was calculated below. [formula]

Series [2] concerns human myelogenous leukemic cells (HL-60). In words: Inhibition of proliferation using human myelogenous leukemic cells (HL-60). Type of series: cell-based. The note with it: 96 h, HL-60 cells, stationary culture at 37°C for 4 days, surviving cell number (Trypan Blue) relative to control. As to the method: The test on the inhibition of proliferation of human myelogenous leukemic cells was conducted by a well known method. The human myelogenous leukemic cells (HL-60) were added to an RPMI culture solution containing 10% bovine fetal serum, the number of cells in the culture solution was adjusted to 1x10^5 cells/ml, a solution in ethanol of the test compound was added to give a concentration of 5µg/ml or 1 µg/ml, and the mixture was subjected to stationary culture at 37°C for 4 days. As a control, a culture solution containing 0.1% of ethanol was similarly cultured. The culture solutions were stained by the Trypan Blue staining method, and the surviving cell number was measured to determine the degree of inhibition relative to the control.

For series [3], the system named is cells originated from human mouth tumor (KB-cells). In words: Inhibition of proliferation using cells originated from human mouth tumor (KB-cells). The note with it: 96 h, stationary culture at 37°C for 4 days, surviving cell number (Trypan Blue) relative to control. Type of series: cell-based. The method, then: The test on the inhibition of proliferation of cells originated from human mouth tumor was conducted by a well known method. The cells originated from human mouth tumor (KB-cells) were added to Eagle's MEM culture solution containing 10% bovine fetal serum, the number of cells in the culture solution was adjusted to 1x10^5 cells/ml, a solution in ethanol of the test compound was added to give a concentration of […] and the mixture was subjected to stationary culture at 37°C for 4 days. As a control, a culture solution containing 0.1% of ethanol was similarly cultured. After the culture, the culture solutions were stained by the Trypan Blue staining method, and the surviving cell number was measured to determine the degree of inhibition relative to the control.

In general, LD50 refers to the dose expected to kill half of the subjects tested. A word on the inhibition: it is how much of the control response was suppressed. `CCCCC[C@H](O)/C=C/[C@H]1C(=O)C[C@H](O)[C@@H]1C/C=C\CCCC(=O)CO` [Compound 1, 2-Decarboxy-2-glycoloyl-PGD2] came in with an LD50 in series [1] of 156 mg/kg. Further, the T/C in the series on Ehrlich ascites tumor is recorded as 75.3. The inhibition at 1 µg/mL in series [2] amounted to 20.4%; in series [3] it was 23.5%. Moreover, the inhibition at 5 µg/mL in series [2] came out at 96.7%; in series [3] it was 100%.
In the series on Ehrlich ascites tumor, `CCCCC[C@H](O)/C=C/[C@H]1C(=O)C=C[C@@H]1C/C=C\CCCC(=O)CO` [Compound 2, 2-Decarboxy-2-glycoloyl-9-deoxy-Δ^9-PGD2] displayed a T/C of 70.5. Besides, in series [2], testing at 1 µg/mL gave an inhibition of 100% and 5 µg/mL produced 100% inhibition. In series [3], this molecule yielded an inhibition at 1 µg/mL of 90.9% and an inhibition at 5 µg/mL of 100%.
`CCCCCC=CC=C1C(=O)C=CC1CC=CCCCC(=O)CO` (stereo not shown) [Compound 3, (5Z,9Z,14EZ)-1-Hydroxymethylprosta-5,9,12,14-tetraene-1,11-dione] gave a T/C with Ehrlich ascites tumor of 244.6. Moreover, the values for the inhibition at 1 µg/mL in series [2] and in series [3] were 100% and 10.6%, respectively. For the same molecule, the inhibition at 5 µg/mL in series [2] and in series [3] was 100% each time.
As to `CCCCC[C@H](O)/C=C/[C@H]1C(=O)C=C[C@@H]1C/C=C\CCCC(=O)NS(C)(=O)=O` [Compound 4, 9-Deoxy-Δ^9-PGD2 methanesulfonylamide], the inhibition at 1 µg/mL in series [2] was determined as 3.9%; in series [3] it was 12.6%. In addition, the inhibition at 5 µg/mL stood at 1.5% in series [2] and 25.5% in series [3].
On to `CCCCCC=CC=C1C(=O)C=CC1CC=CCCCC(=O)NS(C)(=O)=O` (stereo not shown) [Compound 5, (5Z,9Z,14EZ)-N-Methanesulfonyl-11-oxoprosta-5,9,12,14-tetraen-1-amide], for which, in series [2], the inhibition at 1 µg/mL came out at 0% and the inhibition at 5 µg/mL came out at 78.1%. In series [3], this molecule showed an inhibition at 1 µg/mL of 0.9% and an inhibition at 5 µg/mL of 34.6%.
The corresponding values for `CCCCC[C@H](O)/C=C/[C@H]1C(=O)C[C@H](O)[C@@H]1C/C=C\CCCC(=O)N(C)C` [Compound 6, (SZ,13E)-(9a,15S)-N,N-Dimethyl-9,15-dihydroxy-11-oxoprosta-5,13-dien-1-amide] are 9.9%, 99.1%, 19.6% and 100%.
On to `CCCCC[C@H](O)/C=C/[C@H]1C(=O)C=C[C@@H]1C/C=C\CCCC(=O)N(C)C` [Compound 7, (5Z,9Z,13E)-(15S)-N,N-Dimethyl-11-oxo-15-hydroxyprosta-5,9,13-trien-l-amide], for which, in series [2], the inhibition at 1 µg/mL is 41.8% and the inhibition at 5 µg/mL is 100%. In series [3], this molecule came in with an inhibition at 1 µg/mL of 23.7% and an inhibition at 5 µg/mL of 100%.
In the case of `CCCCCC=CC=C1C(=O)C=CC1CC=CCCCC(=O)N(C)C` (stereo not shown) [Compound 8, (5Z,9Z,14EZ)-N,N-Dimethyl-11-oxoprosta-5,9,12,14-tetraen-1-amide], the inhibition at 1 µg/mL in series [2] came out at 30.9%; in series [3] it was 9.5%. The inhibition at 5 µg/mL in series [2] and in series [3] was 100% in each case.
Turning to `CCCCC[C@H](O)/C=C/[C@H]1C(=O)C[C@H](O)[C@@H]1C/C=C\CCCC(N)=O` [Compound 9, (5Z,13E)-(9α,15S)-9,15-Dihydroxy-11-oxoprosta-5,13-dien-1-amide], the inhibition at 1 µg/mL in series [2] stood at 21.5%; in series [3], 2.8%. The inhibition at 5 µg/mL is 97.8% in series [2] and 98.8% in series [3].
In the case of `CCCCC[C@H](O)/C=C/[C@H]1C(=O)C=C[C@@H]1C/C=C\CCCC(N)=O` [Compound 10, (52,9Z,13E)-(15S)-11-Oxo-15-hydroxyprosta-5,9,13-trien-1-amide], in series [1], the LD50 was 167 mg/kg. In series [3], this molecule returned an inhibition at 1 µg/mL of 15.4% and an inhibition at 5 µg/mL of 100%.
Take `CCCCCC=CC=C1C(=O)C=CC1CC=CCCCC(N)=O` (stereo not shown) [Compound 11, (5Z,9Z,14EZ)-11-Oxoprosta-5,9,12,14-tetraen-1-amide]: the T/C in the series with Ehrlich ascites tumor was 155.6. In addition, in series [3], the inhibition at 1 µg/mL is 0.9% and the inhibition at 5 µg/mL amounted to 100%.

The values above are taken from patent EP0098141A2, “Prostaglandin D analogues, process for their preparation and compositions containing them” (ONO PHARMACEUTICAL CO., LTD., priority 1982, dated 1984).
